Laboratory results taken from ChEMBL document CHEMBL1139300, “Identification of a small molecule beta-secretase inhibitor that binds without catalytic aspartate engagement” (Bioorg Med Chem Lett, 2009).

Target: Beta-secretase 1 (Homo sapiens, UniProt P56817)
Assay: Inhibition of BACE1

Chain of Beta-secretase 1 (P56817 whole entry): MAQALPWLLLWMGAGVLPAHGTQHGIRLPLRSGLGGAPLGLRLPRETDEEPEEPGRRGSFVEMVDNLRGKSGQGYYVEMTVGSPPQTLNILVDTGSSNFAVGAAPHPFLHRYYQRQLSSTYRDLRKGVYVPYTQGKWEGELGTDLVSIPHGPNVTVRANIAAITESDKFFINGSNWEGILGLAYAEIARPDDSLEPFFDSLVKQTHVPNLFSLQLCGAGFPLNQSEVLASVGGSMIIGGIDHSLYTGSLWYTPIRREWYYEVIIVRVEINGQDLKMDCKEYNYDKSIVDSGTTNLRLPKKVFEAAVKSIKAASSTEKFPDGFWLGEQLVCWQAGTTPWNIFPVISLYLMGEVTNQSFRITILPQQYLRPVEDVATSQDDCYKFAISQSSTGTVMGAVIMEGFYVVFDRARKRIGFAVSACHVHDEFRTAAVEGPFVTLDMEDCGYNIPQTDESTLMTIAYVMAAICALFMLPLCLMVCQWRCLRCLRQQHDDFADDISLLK

SMILES	IC50
CC(=O)Nc1cc(Nc2cc(-c3ccccc3)ncn2)ccc1C	> 600 µM
C=CCc1ccc(Nc2cc(-c3ccccc3)ncn2)cc1NS(C)(=O)=O	570 µM
Cc1ccc(Nc2cc(-c3ccccc3C)ncn2)cc1NS(C)(=O)=O	219 µM
O=[N+]([O-])c1cc(Nc2cc(-c3ccccc3)ncn2)ccc1Br	> 600 µM
CS(=O)(=O)Nc1cccc(Nc2cc(-c3ccccc3)ncn2)c1	400 µM
Cc1ccc(Nc2cc(-c3ccccc3)ncn2)cc1N(C)S(C)(=O)=O	> 1600 µM
Cc1ccc(Nc2cc(-c3ccccc3N(C)C)ncn2)cc1NS(C)(=O)=O	317 µM
CS(=O)(=O)Nc1cc(Nc2cc(-c3ccccc3)ncn2)ccc1-c1ccccc1	> 600 µM
Nc1cc(Nc2cc(-c3ccccc3)ncn2)ccc1Br	> 600 µM
CS(=O)(=O)Nc1cc(Nc2cc(-c3ccccc3)ncn2)ccc1F	110 µM

Stronger by IC50, values ahead:

IC50	SMILES
69 µM	COc1ccc(Nc2cc(-c3ccccc3)ncn2)cc1NS(C)(=O)=O
37 µM	Cc1ccc(Nc2cc(-c3ccc(CCCO)cc3)ncn2)cc1NS(C)(=O)=O
30 µM	CS(=O)(=O)Nc1cc(Nc2cc(-c3ccccc3)ncn2)ccc1Br
24 µM	Cc1ccc(Nc2cc(-c3ccccc3)ncn2)cc1NS(C)(=O)=O
21 µM	Cc1ccc(Nc2cc(-c3ccc4c(c3)OCCO4)ncn2)cc1NS(C)(=O)=O
19 µM	Cc1ccc(Nc2cc(-c3ccc(-c4ccccc4)cc3)ncn2)cc1NS(C)(=O)=O
16 µM	CS(=O)(=O)Nc1cc(Nc2cc(-c3ccccc3)ncn2)ccc1Cl
15 µM	Cc1ccc(Nc2cc(-c3ccc(N(C)C)cc3)ncn2)cc1NS(C)(=O)=O
